Source: patent US20240368120A1 (Terns Pharmaceuticals, Inc., priority 2023, published 2024)

Molecular target: T1, human GLP-1R receptor (Homo sapiens, UniProt P43220)
T1 construct: expressed in transfected cells
Assay: GLP-1R low expression cell assay (cAMP TR-FRET, CHO-K1_hGLP-1Rlow_clone10 cells)
Format: cell-based
Settings: for EC50: cAMP TR-FRET, 30 min at 25° C.; for Emax: maximum activation relative to control GLP-1 peptide agonist
How it was run: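 Readout is cAMP TR-FRET after 30 min compound stimulation at 25 °C of a low-GLP-1R-expressing CHO-K1 clone (1,000 cells/well), with 10-point 3-fold serial dilutions. Percent activation versus a control GLP-1 peptide, from duplicates, was Hill-fitted to give EC50.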

T1 sequence (P43220 24-463): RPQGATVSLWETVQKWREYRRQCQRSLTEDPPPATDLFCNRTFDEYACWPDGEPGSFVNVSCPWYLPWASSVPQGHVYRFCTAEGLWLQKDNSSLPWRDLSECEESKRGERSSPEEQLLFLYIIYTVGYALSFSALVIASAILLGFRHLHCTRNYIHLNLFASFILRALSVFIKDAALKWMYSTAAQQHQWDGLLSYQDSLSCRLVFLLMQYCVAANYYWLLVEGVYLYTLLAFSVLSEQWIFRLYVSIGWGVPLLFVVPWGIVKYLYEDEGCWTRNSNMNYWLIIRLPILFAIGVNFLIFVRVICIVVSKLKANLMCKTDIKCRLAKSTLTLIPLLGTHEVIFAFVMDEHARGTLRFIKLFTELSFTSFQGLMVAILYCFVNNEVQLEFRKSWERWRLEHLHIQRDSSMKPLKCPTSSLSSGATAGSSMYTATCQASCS

In the case of `COCCOCCOCCOCCOCCOc1cc(C(=O)O)cc2c1nc(CN1CCC(c3cccc4c3O[C@](C)(c3ccc(Cl)cn3)O4)CC1)n2Cc1cncs1` [Compound 5, (R)-4-((2,5,8,11,14-pentaoxahexadecan-16-yl)oxy)-2-((4-(2-(5-chloropyridin-2-yl)-2-methylbenzo[d][1,3]dioxol-4-yl)piperidin-1-yl)methyl)-1-(thiazol-5-ylmethyl)-1H-benzo[d]imidazole-6-carboxylic acid], the EC50 is reported as greater than 1000 nM and the Emax is reported as less than 25%.
`COc1cc(-c2cc(=O)[nH]o2)cc2c1nc(CN1CCC(c3cccc(OCc4ccc(Cl)cc4F)n3)CC1)n2C[C@@H]1CCO1` [Compound 382, (S)-5-(2-((4-(6-((4-Chloro-2-fluorobenzyl)oxy)pyridin-2-yl)piperidin-1-yl)methyl)-4-methoxy-1-(oxetan-2-ylmethyl)-1H-benzo[d]imidazol-6-yl) isoxazol-3 (2H)-one] gave an EC50 of less than 10 nM and an Emax of 50 to 85%.
`Cn1c(CN2CCC(c3cccc4c3O[C@H](c3ccc(Cl)cc3F)CO4)CC2)nc2c(OC(F)F)cc(C(=O)O)cc21` [Compound 335, (R)-2-((4-(3-(4-Chloro-2-fluorophenyl)-2,3-dihydrobenzo[b][1,4]dioxin-5-yl)piperidin-1-yl)methyl)-4-(difluoromethoxy)-1-methyl-1H-benzo[d]imidazole-6-carboxylic acid] gave an EC50 greater than 1000 nM and an Emax of 50 to 85%.
With `CC(C)(C)Oc1cc(C(=O)O)cc2c1nc(CN1CCC(c3cccc(OCc4ccc(C#N)cc4F)n3)CC1)n2C[C@@H]1CCO1` [Compound 109, (S)-4-(tert-Butoxy)-2-((4-(6-((4-cyano-2-fluorobenzyl)oxy)pyridin-2-yl)piperidin-1-yl)methyl)-1-(oxetan-2-ylmethyl)-1H-benzo[d]imidazole-6-carboxylic acid] the EC50 was less than 10 nM and the Emax was greater than 85%.
In the case of `COCCOCCOCCOCCOCCOc1cc(C(=O)O)cc2c1nc(CN1CCC(c3cccc4c3O[C@@](C)(c3ccc(Cl)cn3)O4)CC1)n2Cc1cncs1` [Compound 4, (S)-4-((2,5,8,11,14-pentaoxahexadecan-16-yl)oxy)-2-((4-(2-(5-chloropyridin-2-yl)-2-methylbenzo[d][1,3]dioxol-4-yl)piperidin-1-yl)methyl)-1-(thiazol-5-ylmethyl)-1H-benzo[d]imidazole-6-carboxylic acid], the EC50 is reported as less than 10 nM and the Emax is reported as greater than 85%.
With `Cn1c(CN2CCC(c3nccc(OCc4ccc(C#N)cc4F)n3)CC2)nc2c(OC(F)F)cc(C(=O)O)cc21` [Compound 184, 2-((4-(4-((4-Cyano-2-fluorobenzyl)oxy)pyrimidin-2-yl)piperidin-1-yl)methyl)-4-(difluoromethoxy)-1-methyl-1H-benzo[d]imidazole-6-carboxylic acid] the EC50 was 100 to 1000 nM and the Emax was greater than 85%.
For `COc1cc(C(=O)O)cc2c1nc([C@H](C)N1CCC(c3cccc(OCc4ccc(C#N)cc4F)n3)CC1)n2C` [Compound 102, (S)-2-(1-(4-(6-((4-Cyano-2-fluorobenzyl)oxy)pyridin-2-yl)piperidin-1-yl)ethyl)-4-methoxy-1-methyl-1H-benzo[d]imidazole-6-carboxylic acid], the EC50 was 10 to 100 nM and the Emax was greater than 85%.
`Cn1c(CN2CCC(c3cccc(OCc4ccc(C#N)cc4F)n3)CC2)nc2c(OCCO)cc(C(=O)O)cc21` [Compound 291, 2-((4-(6-((4-Cyano-2-fluorobenzyl)oxy)pyridin-2-yl)piperidin-1-yl)methyl)-4-(2-hydroxyethoxy)-1-methyl-1H-benzo[d]imidazole-6-carboxylic acid] showed an EC50 of less than 10 nM and an Emax greater than 85%.
In the case of `COc1cc(C(=O)O)cc2c1nc(CN1CCC(c3cccc4c3O[C@H](c3ccc(C#N)cc3F)CO4)CC1)n2C` [Compound 310, (R)-2-((4-(3-(4-cyano-2-fluorophenyl)-2,3-dihydrobenzo[b][1,4]dioxin-5-yl)piperidin-1-yl)methyl)-4-methoxy-1-methyl-1H-benzo[d]imidazole-6-carboxylic acid], the EC50 is reported as 10 to 100 nM and the Emax is reported as greater than 85%.
